Measured values: patent US11286263B2, “Macrocyclic fluorine substituted indole derivatives” (The Broad Institute, Inc., priority 2017, dated 2022)
Where “and” joins values, the source holds several entries; their conditions need not be identical. Equal values may be shown once. Read-outs that look alike come from different tables or passages of the source.

Assays:
[1] = tested on: MV-4-11; assay: Antiproliferation assay MV-4-11 (Assay 7); type: cell-based; conditions: MV-4-11 cells, CellTiter-Glo, single determinations, read-out: IC50 Antiproli MV-4-11
Outline: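 Cells plated in treatment plates plus a day 0 reference plate; incubated 72 h at 37 °C; CellTiter-Glo added, 10 min incubation, luminescence read; day 0 plate read at time zero.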

[2] = biological target: BCL-XL (Homo sapiens (Human), UniProt Q07817); assay: Protein-protein interaction assay BCL-XL/Bad BH3 peptide (BCL-XL assay), TR-FRET; type: binding; conditions: median
Protocol: Assay 2 Protein-Protein Interaction Assay: BCL-XL/Bad BH3 Peptide (BCL-XL Assay)
The dose-dependent inhibition by the compounds described in this invention of the interaction between BCL-XL and the BH3 domain of Bad (both human) was determined using a steady state binding competition assay with time-resolved fluorescence energy transfer (TR-FRET) readout. For that purpose BCL-XL (amino acids 1-212, C-terminal fused to a hexahistidine (6× His) tag (SEQ ID 3) and a synthetic Bad BH3-derived peptide of sequence Biotin-PEG2-PEG2-NLWAAQRYGRELRR-Nle-SDEFVDSFKK-amide (SEQ ID 4) served as protein receptor and tracer ligand respectively. The recombinant BCL-XL protein (expressed in Ecol) was purchased from BPS Bioscience (San Diego, Calif., USA). The Bad BH3-derived peptide can be obtained from e.g. Biosyntan (Berlin, Germany).
In the assay 11 different concentrations of each compound (0.1 nM, 0.33 nM, 1.1 nM, 3.8 nM, 13 nM, 44 nM, 0.15 μM, 0.51 μM, 1.7 μM, 5.9 μM and 20 μM) were typically measured as duplicates in the same microtiter plate. For that, 100-fold concentrated DMSO solutions were prepared by serial dilutions (1:3.4) of a 2 mM stock solution in a clear, 384-well microtiter plate (Greiner Bio-One, Frickenhausen, Germany). From there, 50 nl were transferred in a dark test plate (Greiner Bio-One, Frickenhausen, Germany). The assay was initiated by addition of 2 μl of a 2,5-fold concentrated His-BCL-XL solution (usually for a 1 nM end concentration in 5 μl reaction volume) in aqueous assay buffer [50 mM Tris/HCl pH 7, 100 mM sodium chloride (NaCl), 50 μM potassium fluoride (KF), 0.005% Tween-20, 2 mM DTT, 0.1% bovine gamma globulin (BGG)] to the compounds in the assay plate. This was followed by a 10-minute incubation step at 22° C. for pre-equilibration of the putative complex between His-BCL-XL and the compounds. After that, 3 μl of a 1.67-fold concentrated solution (in assay buffer) consisting of Bad BH3-derived peptide (1 nM end concentration) and TR-FRET detection reagents [1.67 nM anti-His-Eu cryptate and 1.67 nM streptavidin-XL665 (both from Cisbio Bioassays, Codolet, France)], were added.
The mixture was incubated in the dark for one hour at 22° C. and then overnight at 4° C. The formation of BCL-XL/Bad complexes was determined by measuring the resonance energy transfer of the anti-His-Eu-cryptate antibody to the streptavidin-XL665 present in the reaction. For that purpose, the fluorescence emission at 620 nm and 665 nm after excitation at 330-350 nm was measured in a TR-FRET measuring instrument, for instance a Rubystar or a Pherastar (both from BMG Lab Technologies, Offenburg, Germany) or a Viewlux (Perkin-Elmer). The ratio of the emission at 665 nm and at 622 nm was used as indicator of the amount of BCL-XL/Bad complexes present.
The resulting data (ratio) were normalized, taking 0% inhibition as the mean value of control measurements (usually 32 data points) where all reagents were included. In this case 50 nl DMSO were used instead of compounds. A 100% inhibition corresponded to the mean value of control measurements (usually 32 data points) where all reagents except BCL-XL were included. IC50 values were determined by regression analysis based on a 4 parameter equation (minimum, maximum, IC50, Hill; Y=Max+(Min−Max)/(1+(X/IC50)^Hill) using the Screener Software (Genedata).

BCL-XL, sequence (Q07817 1-212): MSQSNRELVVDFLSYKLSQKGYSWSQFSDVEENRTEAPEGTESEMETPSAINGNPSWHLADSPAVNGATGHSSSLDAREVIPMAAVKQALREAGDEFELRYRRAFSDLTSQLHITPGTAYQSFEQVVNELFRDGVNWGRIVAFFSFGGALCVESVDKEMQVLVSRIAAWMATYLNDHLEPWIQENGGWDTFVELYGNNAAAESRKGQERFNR

| Structure (SMILES) | IC50 ([1]; Homo sapiens, MV4-11, 72 h) | IC50 ([1]; 72 h) | IC50 [2] |
| --- | --- | --- | --- |
| Cc1cc(OCCCc2c(C(=O)O)n3c4c(c(F)ccc24)-c2c(nn(C)c2C)COCCCC3)cc(C)c1Cl (racemic) [Example 20, (rac)-1-(3-(4-chloro-3,5-dimethylphenoxy)propyl)-13-fluoro-11,12-dimethyl-4,5,6,7,9,11-hexahydropyrazolo[4′,3′:9,10][1]oxa[6]azacycloundecino[8,7,6-hi]indole-2-carboxylic acid] | 8.18 µM | 5.54 µM | > 20 µM |
| CCc1c2c(nn1C)COCCCCn1c(C(=O)O)c(CCCOc3cc(C)c(Cl)c(C)c3)c3ccc(F)c-2c31 (racemic) [Example 31, (rac)-1-(3-(4-chloro-3,5-dimethylphenoxy)propyl)-12-ethyl-13-fluoro-11-methyl-4,5,6,7,9,11-hexahydropyrazolo[4′,3′:9,10][1]oxa[6]azacycloundecino[8,7,6-hi]indole-2-carboxylic acid] | 6.07 µM | 8.25 µM | > 20 µM |
| Cc1nn(C)c2c1-c1c(F)ccc3c(CCCOc4cccc5cc(F)ccc45)c(C(=O)O)n(c13)CCCCOC2 (racemic) [Example 32, (rac)-13-fluoro-1-(3-((6-fluoronaphthalen-1-yl)oxy)propyl)-10,12-dimethyl-4,5,6,7,9,10-hexahydropyrazolo[4′,3′:9,10][1]oxa[6]azacycloundecino[8,7,6-hi]indole-2-carboxylic acid] | 4.85 µM | 4.8 µM and 4.75 µM | > 20 µM |
| Cc1nn(C)c2c1-c1c(F)ccc3c(CCCOc4ccc(F)c5ccccc45)c(C(=O)O)n(c13)CCCCOC2 (racemic) [Example 33, (rac)-13-fluoro-1-(3-((4-fluoronaphthalen-1-yl)oxy)propyl)-10,12-dimethyl-4,5,6,7,9,10-hexahydropyrazolo[4′,3′:9,10][1]oxa[6]azacycloundecino[8,7,6-hi]indole-2-carboxylic acid] | 11.2 µM | – | > 20 µM |
| Cc1cc(OCCCc2c(C(=O)O)n3c4c(c(F)ccc24)-c2c(C)nn(C)c2COCCCC3)cc(C)c1Cl (racemic) [Example 36, (rac)-1-(3-(4-chloro-3,5-dimethylphenoxy)propyl)-13-fluoro-10,12-dimethyl-4,5,6,7,9,10-hexahydropyrazolo[4′,3′:9,10][1]oxa[6]azacycloundecino[8,7,6-hi]indole-2-carboxylic acid] | 16.4 µM | – | > 20 µM |
| CCc1nn(C)c2c1-c1c(F)ccc3c(CCCOc4cccc5ccccc45)c(C(=O)O)n(c13)CCCCOC2 (racemic) [Example 37, (rac)-12-ethyl-13-fluoro-10-methyl-1-(3-(naphthalen-1-yloxy)propyl)-4,5,6,7,9,10-hexahydro-pyrazolo[4′,3′:9,10][1]oxa[6]azacycloundecino[8,7,6-hi]indole-2-carboxylic acid] | 8.4 µM | 6.8 µM and 7.54 µM | > 20 µM |
| CCc1nn(C)c2c1-c1c(F)ccc3c(CCCOc4cc(C)c(Cl)c(C)c4)c(C(=O)O)n(c13)CCCCOC2 (racemic) [Example 46, (rac)-1-(3-(4-chloro-3,5-dimethylphenoxy)propyl)-12-ethyl-13-fluoro-10-methyl-4,5,6,7,9,10-hexahydropyrazolo[4′,3′:9,10][1]oxa[6]azacycloundecino[8,7,6-hi]indole-2-carboxylic acid] | 21 µM | 11.4 µM | > 20 µM |
| Cc1c2c(nn1C)COCCCCn1c(C(=O)O)c(CCCOc3ccc(F)c4ccccc34)c3ccc(F)c-2c31 (single isomer, unassigned; enantiomer 1) [Example 16, 4-fluoro-7-{3-[(4-fluoronaphthalen-1-yl)oxy]propyl}-2,3-dimethyl-2,10,11,12,13,15-hexahydro-pyrazolo[4′,3′:9,10][1,6]oxazacycloundecino[8,7,6-hi]indole-8-carboxylic acid (enantiomer 1)] | – | 3.55 µM | > 20 µM |

The next lines start with the values.

| IC50 ([1]; Homo sapiens, MV4-11, 72 h) | IC50 ([1]; 72 h) | IC50 [2] | Structure (SMILES) |
| --- | --- | --- | --- |
| 3.53 µM | 2.89 µM and 5.61 µM | > 20 µM | Cc1c2c(nn1C)COCCCCn1c(C(=O)O)c(CCCOc3cccc4c3CCCC4)c3ccc(F)c-2c31 (racemic) [Example 18, (rac)-13-fluoro-11,12-dimethyl-1-(3-((5,6,7,8-tetrahydronaphthalen-1-yl)oxy)propyl)-4,5,6,7,9,11-hexahydropyrazolo[4′,3′:9,10][1]oxa[6]azacycloundecino[8,7,6-hi]indole-2-carboxylic acid] |
| 4.3 µM | 2.9 µM and 4.9 µM | > 20 µM | Cc1c2c(nn1C)COCCCCn1c(C(=O)O)c(CCCOc3cccc4c3CCC4)c3ccc(F)c-2c31 (racemic) [Example 19, (rac)-1-(3-((2,3-dihydro-1H-inden-4-yl)oxy)propyl)-13-fluoro-11,12-dimethyl-4,5,6,7,9,11-hexahydropyrazolo[4′,3′:9,10][1]oxa[6]azacycloundecino[8,7,6-hi]indole-2-carboxylic acid] |
| 2.04 µM | 2.55 µM | > 20 µM | CCc1c2c(nn1C)COCCCCn1c(C(=O)O)c(CCCOc3cccc4c3CCCC4)c3ccc(F)c-2c31 (racemic) [Example 29, (rac)-12-ethyl-13-fluoro-11-methyl-1-(3-((5,6,7,8-tetrahydronaphthalen-1-yl)oxy)propyl)-4,5,6,7,9,11-hexahydropyrazolo[4′,3′:9,10][1]oxa[6]azacycloundecino[8,7,6-hi]indole-2-carboxylic acid] |
| 11.6 µM | 12.3 µM | > 20 µM | Cc1nn(C)c2c1-c1c(F)ccc3c(CCCOc4cccc5c4CCCC5)c(C(=O)O)n(c13)CCCCOC2 (racemic) [Example 34, (rac)-13-fluoro-10,12-dimethyl-1-(3-((5,6,7,8-tetrahydronaphthalen-1-yl)oxy)propyl)-4,5,6,7,9,10-hexahydropyrazolo[4′,3′:9,10][1]oxa[6]azacycloundecino[8,7,6-hi]indole-2-carboxylic acid] |
| 12.4 µM | – | > 20 µM | Cc1nn(C)c2c1-c1c(F)ccc3c(CCCOc4cccc5c4CCC5)c(C(=O)O)n(c13)CCCCOC2 (racemic) [Example 35, (rac)-1-(3-((2,3-dihydro-1H-inden-4-yl)oxy)propyl)-13-fluoro-10,12-dimethyl-4,5,6,7,9,10-hexahydropyrazolo[4′,3′:9,10][1]oxa[6]azacycloundecino[8,7,6-hi]indole-2-carboxylic acid] |
| 9.83 µM | – | > 20 µM | CCc1nn(C)c2c1-c1c(F)ccc3c(CCCOc4cccc5c4CCCC5)c(C(=O)O)n(c13)CCCCOC2 (racemic) [Example 44, (rac)-12-ethyl-13-fluoro-10-methyl-1-(3-((5,6,7,8-tetrahydronaphthalen-1-yl)oxy)propyl)-4,5,6,7,9,10-hexahydropyrazolo[4′,3′:9,10][1]oxa[6]azacycloundecino[8,7,6-hi]indole-2-carboxylic acid] |
| 6.2 µM | 6.56 µM | > 20 µM | CCc1nn(C)c2c1-c1c(F)ccc3c(CCCOc4cccc5c4CCC5)c(C(=O)O)n(c13)CCCCOC2 (racemic) [Example 45, (rac)-1-(3-((2,3-dihydro-1H-inden-4-yl)oxy)propyl)-12-ethyl-13-fluoro-10-methyl-4,5,6,7,9,10-hexahydropyrazolo[4′,3′:9,10][1]oxa[6]azacycloundecino[8,7,6-hi]indole-2-carboxylic acid] |
